Each molecule was assayed against Mouse ERK2 protein (Mus musculus (Mouse), UniProt P63085) (assay: Coupled MEK1/ERK2 IMAP assay or Active ERK2 IMAP assay). Conditions: Table 1, class symbols, 30 μM ATP.
Format: biochemical
Procedure: 14 μl of kinase buffer (10 mM Tris.HCl pH 7.2, 10 mM MgCl2, 0.01% Tween-20, 1 mM DTT) containing 0.4 ng unphosphorylated Mouse ERK2 protein is added to each well of a black 384-well assay plate. […] DMSO concentration during initial incubation is 6.7%. […] DMSO concentration during ERK activation was 4%. After one hour, reactions are terminated by addition of 60 μl IMAP detections beads in binding buffer (Molecular Devices). Binding is allowed to equilibrate for 30 minutes before reading the plate on an LJL Analyst Fluorescence Polarization plate reader.
Activated ERK2 activity was also determined in the IMAP assay format using the procedure outlined above. […] Reactions proceeded for 30 minutes before termination by addition of […] IMAP detection beads in binding buffer. Plates were read as above after 30 minute binding equilibration.

Chain of Mouse ERK2 protein (P63085 whole entry): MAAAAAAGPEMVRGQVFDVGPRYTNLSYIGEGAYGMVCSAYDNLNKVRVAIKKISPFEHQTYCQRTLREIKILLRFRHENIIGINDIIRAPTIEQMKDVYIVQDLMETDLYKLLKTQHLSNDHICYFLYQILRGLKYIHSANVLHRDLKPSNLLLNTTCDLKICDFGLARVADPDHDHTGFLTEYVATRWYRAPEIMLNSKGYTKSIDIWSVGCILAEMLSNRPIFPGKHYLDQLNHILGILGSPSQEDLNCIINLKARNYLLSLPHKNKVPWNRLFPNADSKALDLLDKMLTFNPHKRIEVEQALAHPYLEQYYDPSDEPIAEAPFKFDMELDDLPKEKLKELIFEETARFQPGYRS

IC50, 0.101 to 1 µM:
COc1ccc(OC)c(CC(=O)N2CCc3[nH]nc(-c4ccncc4)c3C2)c1 [Compound 23, 5-[(2,5-dimethoxyphenyl)-acetyl]-4,5,6,7-tetrahydro-3-(4-pyridinyl)-1H-pyrazolo[4,3-c]pyridine]
Cc1cc(-c2n[nH]c3c2CN(C(=O)NC2(C)CCCN(Cc4c(F)cccc4F)C2)CC3)ccn1 (stereo not shown) [Compound 87, N-[1-[(2,6-difluorophenyl)-methyl]-3-methyl-3-piperidinyl]-1,4,6,7-tetrahydro-3-(2-methyl-4-pyridinyl)-5H-pyrazolo[4,3-c]pyridine-5-carboxamide]
Cc1cc(-c2n[nH]c3c2CN(C(=O)N[C@@H]2CCN(Cc4c(F)cccc4F)C2)CC3)ccn1 [Compound 115, N-[1-[(2,6-difluorophenyl)-methyl]-3(R)-pyrrolidinyl]-1,4,6,7-tetrahydro-3-(2-methyl-4-pyridinyl)-5H-pyrazolo[4,3-c]pyridine-5-carboxamide]
COC(=O)C1CC(NC(=O)N2CCc3[nH]nc(-c4ccnc(C)c4)c3C2)CN(Cc2c(F)cccc2F)C1 (stereo not shown) [Compound 82, methyl 1-[(2,6-difluorophenyl)methyl]-5-[[[1,4,6,7-tetrahydro-3-(2-methyl-4-pyridinyl)-5H-pyrazolo[4,3-c]pyridin-5-yl]carbonyl]amino]-3-piperidinecarboxylate]
O=C(N[C@@H]1CCCN(Cc2ccccc2N2CCOCC2)C1)N1CCc2[nH]nc(-c3ccncc3)c2C1 [Compound 74, 1,4,6,7-tetrahydro-N-[1-[[2-(4-morpholinyl)phenyl]-methyl]-3(R)-piperidinyl]-3-(4-pyridinyl)-5H-pyrazolo[4,3-c]pyridine-5-carboxamide]
Cc1nc2cc(-c3n[nH]c4c3CN(C(=O)N[C@@H]3CCCN(Cc5c(F)cccc5F)C3)CC4)ccc2s1 [Compound 188, N-[1-[(2,6-difluorophenyl)methyl]-3(R)-piperidinyl]-1,4,6,7-tetrahydro-3-(2-methyl-5-benzothiazolyl)-5H-pyrazolo[4,3-c]pyridine-5-carboxamide]
Cc1nc2ccc(-c3n[nH]c4c3CN(C(=O)N[C@@H]3CCCN(Cc5c(F)cccc5F)C3)CC4)cc2o1 [Compound 187, N-[1-[(2,6-difluorophenyl)methyl]-3(R)-piperidinyl]-1,4,6,7-tetrahydro-3-(2-methyl-6-benzoxazolyl)-5H-pyrazolo[4,3-c]pyridine-5-carboxamide]
Cc1cc(-c2n[nH]c3c2CN(C(=O)NC2CCC(c4ccccc4)NC2)CC3)ccn1 (stereo not shown) [Compound 105, 1,4,6,7-tetrahydro-3-(2-methyl-4-pyridinyl)-N-(6-phenyl-3-piperidinyl)-5H-pyrazolo[4,3-c]pyridine-5-carboxamide]
O=C(N[C@H]1CNC[C@@H]1c1ccccc1)[C@@H]1CCc2[nH]nc(-c3ccncc3)c2C1 (racemic) [Compound 12, 4,5,6,7-tetrahydro-N-(trans-4-phenyl-3-pyrrolidinyl)-3-(4-pyridinyl)-1H-indazole-5(R)-carboxamide]
Cc1cc(-c2n[nH]c3c2CN(C(=O)N[C@H]2CC[C@H]4CC[C@@H]2N4Cc2c(F)cccc2F)CC3)ccn1 [Compound 164, N-[endo-8-[(2,6-difluorophenyl)methyl]-8-azabicyclo[3.2.1]oct-2-yl]-1,4,6,7-tetrahydro-3-(2-methyl-4-pyridinyl)-5H-pyrazolo[4,3-c]pyridine-5-carboxamide]
O=C(NC1CN(Cc2c(F)cccc2F)CCC1F)N1CCc2[nH]nc(-c3ccc4nccn4c3)c2C1 (mixture of isomers) [Compound 156, N-[cis/trans-1-[(2,6-difluorophenyl)methyl]-4-fluoro-3-piperidinyl]-1,4,6,7-tetrahydro-3-imidazo[1,2-a]pyridin-6-yl-5H-pyrazolo[4,3-c]pyridine-5-carboxamide]
O=C(Cc1ccccc1-c1cccnc1)N1CCc2[nH]nc(-c3ccncc3)c2C1 [Compound 33, 4,5,6,7-tetrahydro-3-(4-pyridinyl)-5-[[2-(3-pyridinyl)phenyl]acetyl]-1H-pyrazolo[4,3-c]pyridine]

IC50, < 0.02 µM:
Cc1cc(-c2n[nH]c3c2CN(C(=O)N[C@@H]2CC[C@H]4CC[C@@H]2N4Cc2ccccc2F)CC3)ccn1 [Compound 168, N-[exo-8-[(2-fluorophenyl)methyl]-8-azabicyclo[3.2.1]oct-2-yl]-1,4,6,7-tetrahydro-3-(2-methyl-4-pyridinyl)-5H-pyrazolo[4,3-c]pyridine-5-carboxamide]
COc1cccc(F)c1CN1CCC(F)C(NC(=O)N2CCc3[nH]nc(-c4ccnc(C)c4)c3C2)C1 (stereo not shown) [Compound 135, N-[4-fluoro-1-[(2-fluoro-6-methoxyphenyl)methyl]-3-piperidinyl]-1,4,6,7-tetrahydro-3-(2-methyl-4-pyridinyl)-5H-pyrazolo[4,3-c]pyridine-5-carboxamide]
O=C(N[C@@H]1CCCN(Cc2c(F)cccc2F)C1)N1CCc2[nH]nc(-c3ccc4nccn4c3)c2C1 [Compound 111, N-[1-[(2,6-difluorophenyl)-methyl]-3(R)-piperidinyl]-1,4,6,7-tetrahydro-3-(imidazo[1,2-a]pyridin-6-yl)-5H-pyrazolo[4,3-c]pyridine-5-carboxamide]
O=C(N[C@@H]1CNC[C@H]1c1cccc(-c2ccccc2)c1)N1CCc2[nH]nc(-c3ccncc3)c2C1 (racemic) [Compound 167, N-[trans-4-[1,1′-biphenyl]-3-yl-3-pyrrolidinyl]-1,4,6,7-tetrahydro-3-(4-pyridinyl)-5H-pyrazolo[4,3-c]pyridine-5-carboxamide]
Cn1ncc2cc(-c3n[nH]c4c3CN(C(=O)NC3CCC5CCC3N5Cc3ccccc3F)CC4)ccc21 (stereo not shown) [Compound 140, N-[8-[(2-fluorophenyl)methyl]-8-azabicyclo[3.2.1]oct-2-yl]-1,4,6,7-tetrahydro-3-(1-methyl-1H-indazol-5-yl)-5H-pyrazolo[4,3-c]pyridine-5-carboxamide]

IC50, 0.021 to 0.1 µM:
O=C(N[C@H]1CNC[C@@H]1c1ccccc1)[C@H]1CCc2[nH]nc(-c3ccncc3)c2C1 (racemic) [Compound 13, 4,5,6,7-tetrahydro-N-(trans-4-phenyl-3-pyrrolidinyl)-3-(4-pyridinyl)-1H-indazole-5(S)-carboxamide]
COc1ccc(-c2n[nH]c3c2CN(C(=O)N[C@@H]2CCCN(Cc4c(F)cccc4F)C2)CC3)cc1F [Compound 131, N-[1-[(2,6-difluorophenyl)-methyl]-3(R)-piperidinyl]-3-(3-fluoro-4-methoxyphenyl)-1,4,6,7-tetrahydro-5H-pyrazolo[4,3-c]pyridine-5-carboxamide]
Cn1cc2cc(-c3n[nH]c4c3CN(C(=O)N[C@@H]3CCCN(Cc5c(F)cccc5F)C3)CC4)ccc2n1 [Compound 133, N[1-[(2,6-difluorophenyl)-methyl]-3(R)-piperidinyl]-1,4,6,7-tetrahydro-3-(2-methyl-2H-indazol-5-yl)-5H-pyrazolo[4,3-c]pyridine-5-carboxamide]
O=C(N[C@@H]1CCCN(CCc2ccccc2)C1)N1CCc2[nH]nc(-c3ccncc3)c2C1 [Compound 173, 1,4,6,7-tetrahydro-N-[1-(2-phenylethyl)-3(R)-piperidinyl]-3-(4-pyridinyl)-5H-pyrazolo[4,3-c]pyridine-5-carboxamide]
O=C(N[C@@H]1CCCN(Cc2c(F)cccc2C(F)(F)F)C1)N1CCc2[nH]nc(-c3ccncc3)c2C1 [Compound 68, N-[1-[[2-fluoro-6-(trifluoromethyl)phenyl]meth-yl]-3(R)-piperidinyl]-1,4,6,7-tetrahydro-3-(4-pyridinyl)-5H-pyrazolo[4,3-c]pyridine-5-carboxamide]
Cc1cc(-c2n[nH]c3c2CN(C(=O)NC2CC(C)CN(Cc4c(C)cccc4C)C2)CC3)ccn1 (stereo not shown) [Compound 94, N-[1-[(2,6-dimethylphenyl)-methyl]-5-methyl-3-piperidinyl]-1,4,6,7-tetrahydro-3-(2-methyl-4-pyridinyl)-5H-pyrazolo[4,3-c]pyridine-5-carboxamide]
COc1ccc(-c2n[nH]c3c2CN(C(=O)N[C@@H]2CCCN(Cc4c(C)cccc4C)C2)CC3)cn1 [Compound 125, N-[1-[(2,6-dimethylphenyl)-methyl]-3(R)-piperidinyl]-1,4,6,7-tetrahydro-3-(6-Methoxy-3-pyridinyl)-5H-pyrazolo[4,3-c]pyridine-5-carboxamide]
Cc1nc2cc(-c3n[nH]c4c3CN(C(=O)N[C@@H]3CCCN(Cc5cccc6ncccc56)C3)CC4)ccc2o1 [Compound 146, 1,4,6,7-tetrahydro-3-(2-methyl-5-benzoxazolyl)-N-[1-(5-quinolinylmethyl)-3(R)-piperidinyl]-5H-pyrazolo[4,3-c]pyridine-5-carboxamide]
COc1cccc(F)c1CN1CC(NC(=O)N2CCc3[nH]nc(-c4ccnc(C)c4)c3C2)CCC1C (stereo not shown) [Compound 121, N-[1-[(2-fluoro-6-methoxyphenyl)methyl]-6-methyl-3-piperidinyl]-1,4,6,7-tetrahydro-3-(2-methyl-4-pyridinyl)-5H-pyrazolo[4,3-c]pyridine-5-carboxamide]

IC50, 1 to 100 µM:
Nc1nc(CC(=O)N2CCc3[nH]nc(-c4ccncc4)c3C2)cs1 [Compound 5, 5-[(2-amino-4-thiazolyl)-acetyl]-4,5,6,7-tetrahydro-3-(4-pyridinyl)-1H-pyrazolo[4,3-c]pyridine]
CC(C(=O)N1CCc2[nH]nc(-c3ccncc3)c2C1)c1ccccc1Cl (stereo not shown) [Compound 41, 5-[2-(2-chlorophenyl)-1-oxopropyl]-4,5,6,7-tetrahydro-3-(4-pyridinyl)-1H-pyrazolo[4,3-c]pyridine]
